{"source": "patent US10071966B2", "about": "“Drug for inhibiting aggregation of proteins involved in diseases linked to protein aggregation and/or neurodegenerative diseases” (Ludwig-Maximilians-Universität München, priority 2008, dated 2018)", "key": {"RML scrapie [1]": {"system": "RML scrapie", "format": "in vivo, C57Bl6 mice", "settings": "i.c. RML scrapie"}, "[2]": {"system": "PrPSc in spleen (RML scrapie)", "format": "in vivo, C57Bl6 mice", "settings": "i.p. RML scrapie; 25 μL 100 mM i.p. 14 days then 50 mg/kg oral; day 35 post infection"}, "[3]": {"system": "PrP^Sc accumulation in brain (RML scrapie)", "format": "in vivo, C57BL/6 mice", "settings": "brain at 120 dpi"}, "[4]": {"system": "PrP^Sc accumulation in spleen (RML scrapie)", "format": "in vivo, C57BL/6 mice", "settings": "i.p. infection; 34 days of 1 mg compound per day in DMSO+peanut butter; spleen at 35 dpi"}, "RML scrapie [5]": {"system": "RML scrapie", "format": "in vivo, C57BL/6 mice"}, "RML scrapie [6]": {"system": "RML scrapie", "format": "in vivo, C57BL/6 mice", "settings": "different times and schedules of treatment; p<0.01"}, "[7]": {"system": "PrPSc in brain (RML scrapie)"}, "[8]": {"test": "Pharmacokinetic analysis of anle138b, compound in brain and serum by LC-MS (Example 15)", "settings": "single dose, non-infected mice"}, "α-synuclein": {"biological_target": "α-synuclein (Homo sapiens, UniProt P37840)", "test": "Inhibition of the formation of α-synuclein aggregates (intermediate II oligomers), confocal single molecule spectroscopy (Example 16)", "format": "biochemical"}, "[9]": {"settings": "5 mg per day orally in DMSO+peanut butter from 80 or 120 dpi"}, "[10]": {"settings": "i.c. RML scrapie, treatment from day 80"}}, "note": "“Also recorded” adds a separate entry of the source. Read-outs that look alike come from different tables or passages of the source.", "data": [{"smiles": "Brc1cccc(-c2cc(-c3ccc4c(c3)OCO4)n[nH]2)c1", "note": "[anle138b, 3-(1,3-Benzodioxol-5-yl)-5-(3-bromophenyl)-1H-pyrazole]", "values": [{"measurement": "effect of treatment on survival time", "setting": "RML scrapie [1]; daily i.p. for 14 days from day 80 post infection", "value": "significantly prolongs the survival times"}, {"measurement": "average survival time prolonged by, in comparison to DMSO vehicle group", "setting": "RML scrapie [1]; i.p. 25 μL per day of 100 mM compound for 14 days from day 80 post infection", "value": 14.9, "unit": "days"}, {"measurement": "PrPSc deposits in spleen tissue (immunohistology)", "setting": "[2]", "value": "reduced"}, {"measurement": "splenic PrPSc level (immunoblot / dot blot) compared to vehicle-treated mice", "setting": "[2]", "value": "strong reduction in PrPSc levels; also recorded: decreases significantly"}, {"measurement": "Inhibition [%] of PrPSc accumulation in brain, protocol a", "setting": "[3]; 1 mg compound per day orally in DMSO+peanut butter from 80 dpi, relative to DMSO-treated (0%) and start of treatment (100%)", "value": 69, "unit": "%"}, {"measurement": "PrPSc accumulation in brain, dose dependence", "setting": "[3]; different amounts orally in DMSO+peanut butter from 80 dpi", "value": "reduced PrP^Sc accumulation in brain in a dose-dependent manner"}, {"measurement": "Inhibition [%] of PrPSc accumulation in spleen, protocol c", "setting": "[4]", "value": 62, "unit": "%"}, {"measurement": "PrPSc accumulation in brain (stained sections, brain homogenates)", "setting": "RML scrapie [5]; [9]", "value": "strongly reduced"}, {"measurement": "apoptotic cells in the cerebellum (neuronal cell death)", "setting": "RML scrapie [5]; [9]", "value": "inhibition of neuronal cell death"}, {"measurement": "time for which weight loss is prevented", "setting": "RML scrapie [5]; 5 mg per day orally, treatment from 80 dpi onwards", "value": "~100", "unit": "days"}, {"measurement": "time for which weight loss is inhibited", "setting": "RML scrapie [5]; 5 mg per day orally, treatment from 120 dpi", "value": "~70", "unit": "days"}, {"measurement": "survival times after challenge with RML scrapie", "setting": "RML scrapie [6]", "value": "significantly prolonged the survival times"}, {"measurement": "Inhibition [%] of PrPSc accumulation in brain, protocol b", "setting": "[7]; 0.84 mg per day i.p. 14 days from 80 dpi then 2x5 days 1 mg by gavage, brain at 106 dpi, relative to DMSO-treated (0%) and start of treatment (100%)", "value": 108, "unit": "%"}, {"measurement": "change of relative PrPSc levels in brain compared to untreated control at day 80", "setting": "[7]; [10]", "value": "slighty decreased"}, {"measurement": "pathological changes / apoptotic cells in cerebellar granule cell layer (H&E stained brain slices)", "setting": "[7]; [10]", "value": "reduction of pathological changes"}, {"measurement": "survival time until terminal stage of scrapie infection", "setting": "[7]; i.c. RML scrapie, treatment from day 80, two anle138b mice additionally fed compound in peanut butter day 109 to 136", "value": "longer survival times"}, {"measurement": "brain penetration", "setting": "[8]", "value": "good brain penetration"}, {"measurement": "oral bioavailability", "setting": "[8]", "value": "good oral bioavailability"}]}, {"smiles": "FCCn1nc(-c2ccc3c(c2)OCO3)cc1-c1cccc(Br)c1", "note": "[sery363a]", "values": [{"measurement": "reduction of PrPC accumulation compared to DMSO-treated controls", "setting": "[3]; 3 mg compound per day orally in DMSO+peanut butter from 80 dpi", "value": 35, "unit": "%"}]}, {"smiles": "Nc1ccc(-c2cc(-c3cccc(Cl)c3)n[nH]2)cc1", "note": "[sery383]", "values": [{"measurement": "reduction of PrPC accumulation compared to DMSO-treated controls", "setting": "[3]; 1 mg compound per day orally in DMSO+peanut butter from 80 dpi", "value": 30, "unit": "%"}, {"measurement": "inhibition of alpha-synuclein aggregation", "setting": "α-synuclein", "value": "highly active"}, {"measurement": "Intermediate II (formation of intermediate II oligomers in comparison to controls without compound)", "setting": "α-synuclein; compound 10 μM, aggregation induced by DMSO and 10 μM FeCl3", "value": "<5", "unit": "%"}]}]}
